The source of these data is PMC11680018, “Study of Cytotoxicity of Spiro-Fused [3-Azabicyclo[3.1.0]hexane]oxindoles and Cyclopropa[a]pyrrolizidine-oxindoles Against Tumor Cell Lines” (Pharmaceuticals, 2024).

Like-named read-outs stand apart in the source and are kept apart here.

In assay [1] the test system is human erythroleukemia (K562) cell line. The experiment in a line: MTS cell proliferation assay, K562. As to conditions: Homo sapiens, MTS. The class given is cell-based. How it is done: (§1) Cancer cell lines are valuable in vitro model systems that are widely used in cancer research and drug discovery. Their use is mainly linked to their possibility to provide for experimental purposes an unlimited source of biological material. Here, the 24 and 72 h in vitro MTS assay was used to determine the antiproliferative activity of synthesized spiro-fused cyclopropa[a]pyrrolizidine-2,3′-oxindoles and [3-azabicyclo[3.1.0]hexane]-oxindoles against human erythroleukemia (K562), acute T cell leukemia (Jurkat), cervical carcinoma (HeLa), melanoma (Sk-mel-2), breast cancer adenocarcinoma (MCF-7) as well as mouse colon carcinoma (CT26) cell lines. […] The full results of these investigations are presented in the Supporting Information Figures S1–S6. […] An evaluation of the cytotoxicity of the selected compounds towards normal cells (peripheral blood mononuclear cells) was performed additionally to understand their respective relative selectivities. The selectivity index was obtained using the ratio of measured cytotoxicity between the PBMC cells and each of the cancer cell lines, and the results are presented in Table 3.
(§2) The human erythroleukemia (K-562), cervical carcinoma (HeLa) as well as mouse colon carcinoma (CT26) cell lines were obtained from the Bank of Cell Cultures of the Institute of Cytology of the Russian Academy of Sciences; the human melanoma (Sk-mel-2) cell line was obtained from the Bank of Cell Cultures of the Institute of Cytology and Genetics, Siberian Branch of the Russian Academy of Sciences. The acute T cell leukemia (Jurkat) cell line was obtained from the Bank of Cell Cultures of the Institute of Immunology of the Russian Academy of Medical Sciences. The peripheral blood mononuclear cells (PBMC) were isolated from the blood of healthy donors. K-562, Jurkat, MCF-7, PBMC and CT26 cells were grown on RPMI medium (Hyclone, GE Healthcare Life Sciences, Logan, UT, USA) supplemented with 10% (v/v) fetal bovine serum (Hyclone, GE Healthcare Life Sciences, Logan, UT, USA) and gentamicin (Sigma-Aldrich, St. Louis, MO, USA) at 37 °C in a humidified atmosphere with 5% CO2. HeLa and Sk-mel-2 cells were cultured with the same supplements and conditions in DMEM medium (Hyclone, GE Healthcare Life Sciences, Logan, UT, USA).
(§3) To evaluate the in vitro toxicity of the compounds synthesized, cells were seeded into 96-well plates at a density of 5 × 10^3 cells per well. On the next day, the tested compounds were added to the wells at concentrations ranging from 1 to 30 μg/mL, followed by incubation for 1 and 3 days. Cell proliferation was determined by adding 20 μL of MTS reagent (BioVision, Milpitas, CA, USA) stock solution per well. The plates were incubated for 2 h at 37 °C in a humidified, 5% CO2 atmosphere. The plates were then read at 495 nm using a plate spectrophotometer (Multiskan GO, Thermo Fisher Scientific, Waltham, MA, USA). All samples were measured in triplicate.

For assay [2], the system named is cervical carcinoma (HeLa) cell line. Description: MTS cell proliferation assay, HeLa. Format: cell-based, human. As to conditions: Homo sapiens, HeLa, MTS. Here is the method:
as §1, §2, §3

Assay [3] concerns melanoma (Sk-mel-2) cell line. The experiment in a line: MTS cell proliferation assay, Sk-mel-2. The class given is cell-based, human. As to conditions: Homo sapiens, MTS. How it is done:
as §1, §2, §3

For assay [4], the system named is mouse colon carcinoma (CT26) cell line. Description: MTS cell proliferation assay, CT26. As to conditions: Mus musculus, MTS. The class given is cell-based. Here is the method:
as §1, §2, §3

The test system of assay [5] is human melanoma (Sk-mel-2) cell line. Description: Cell motility by scratch test. The class given is cell-based. The settings on record: 10 μg/mL, 36 h, serum-free DMEM; nontreated cells 69.5 ± 17.2. How it is done: To assess the potential ability of spiro-fused [3-azabicyclo[3.1.0]hexane]oxindoles 4, 11, 12, 18, 24 and cyclopropa[a]pyrrolizidine-2,3′-oxindole 2 to inhibit metastasis associated with cell motility, a scratch test was performed on the human melanoma (Sk-mel-2) cell line. Different fields were analyzed by bright field, and each scratch area was photographed at 0 and 36 h for non-toxic and fast cell visualization. Nontreated Sk-mel-2 cells filled 69.5 ± 17.2, 41.5 ± 5.3, 59.7 ± 8.1, 49.3 ± 5.3, 43.0 ± 12.6, 26.1 ± 2.5 and 55.9 ± 8.6% of the scratched strip while under treatment with spiro-fused oxindole derivatives 2, 4, 11, 12, 18 and 24 cells, respectively.
Cells were seeded at a density of 5 × 10^5 cells per dish onto petri dishes and grown to confluency. A 200 μL pipette tip was used to make scratch wounds and detached cells were removed after that by washing with phosphate-buffered saline. Culture media was replaced with serum-free DMEM in order to inhibit cell proliferation. Compounds to be screened were added at a dose of 10 μg/mL to the cultures and incubated for 36 h. Different fields were analyzed by bright field, and each scratch area was photographed at 0 and 36 h. Images were captured using an Axio Observer Z1 confocal microscope (Carl Zeiss MicroImaging GmbH, Jena, Germany). The percent of wound closure in five randomly chosen fields was calculated with ImageJ software, 1.52v.

As to `COC(=O)C1C2(c3ccccc3)C(Cc3c[nH]c4ccccc34)NC3(C(=O)Nc4ccccc43)C12c1ccccc1` (stereo not drawn) [Compound 11], the IC50 came to 7 ± 1 µM in assay [1] (read-out: IC50 K562 24 h, K562, 24 h); 7 ± 1 µM in assay [1] (K562, 72 h, read-out: IC50 K562 72 h); 15 ± 2 µM in assay [2] (read-out: IC50 HeLa 24 h, 24 h); 22 ± 2 µM in assay [2] (72 h, read-out: IC50 HeLa 72 h); 33 ± 3 µM in assay [3] (read-out: IC50 Sk-mel-2 24 h, Sk-mel-2, 24 h); 15 ± 1 µM in assay [3] (Sk-mel-2, 72 h, read-out: IC50 Sk-mel-2 72 h). In addition, the IC50 in assay [4] (read-out: IC50 CT26 24 h, CT26, 24 h) is > 40 µM; in assay [4] (CT26, 72 h, read-out: IC50 CT26 72 h), 19 ± 2 µM. In assay [5], the “Part of the scratched strip filled by Sk-mel-2 cells” value is 49.3 ± 5.3%.
